In ChEMBL document CHEMBL1152061, “New cytostatic agents obtained by molecular topology” (Bioorg Med Chem Lett, 1996):

Key:
[1] = test system: HepG2; experiment: Compound was evaluated for the cytotoxicity against human hepatocellular carcinoma, HepG2 (ATCC HB8065); type: functional
[2] = Compound was evaluated for the cytotoxicity against human ocular lens epithelium (CECH).; type: functional, Lens of camera-type eye
[3] = test system: HeLa; experiment: Compound was evaluated for the cytotoxicity against human cervix epithelioid carcinoma, HeLa (ATCC CCL2).; type: functional
[4] = test system: HeLa; experiment: Compound was evaluated for the cytotoxicity against human cervix epithelioid carcinoma, HeLa (ATCC CCL2); type: functional
[5] = Compound was evaluated for the inhibition of cell proliferation of human ocular lens epithelium (CECH).; type: functional, tissue-based; settings: Lens of camera-type eye
[6] = Cytotoxicity ratio for Human hepatocellular carcinoma, HepG2 (ATCC HB 8065) cells; type: functional
[7] = test system: HepG2; experiment: Compound was evaluated for the inhibition of cell proliferation of human hepatocellular carcinoma, HepG2 (ATCC HB8065).; type: functional, cell-based
[8] = test system: HeLa; experiment: Compound was evaluated for the inhibition of cell proliferation of human cervix epithelioid carcinoma, HeLa (ATCC CCL2).; type: functional, cell-based

SMILES | MNTC [1] [µM] | MNTC [2] [µM] | MNTC [3] [µM] | MNTC [4] [µM] | IC50 [5] [µM] | Ratio [6] | IC50 [7] [µM] | IC50 [8] [µM]
CNC(C)C1CCC(N)C(OC2C(N)CC(N)C(OC3OCC(C)(O)C(NC)C3O)C2O)O1.CNC1C(O)C(OC2C(N)CC(N)C(OC3OC(C(C)N)CCC3N)C2O)OCC1(C)O.CNC1C(O)C(OC2C(N)CC(N)C(OC3OC(CN)CCC3N)C2O)OCC1(C)O.O=S(=O)(O)O (stereo unspecified) [GENTAMICIN MIXTURE] | 210 | 210 | >1050 |  |  |  |  | 
CCC[C@@H]1C[C@@H](C(=O)N[C@@H]([C@H]2O[C@H](SC)[C@H](O)[C@@H](O)[C@H]2O)[C@H](C)Cl)N(C)C1 [CLINDAMYCIN] | >5000 | 1000 |  | 1000 |  |  |  | 
CO[C@@]12[C@H](COC(N)=O)C3=C(C(=O)C(C)=C(N)C3=O)N1C[C@@H]1N[C@@H]12 [MITOMYCIN] | 0.7 |  | 2 |  | 0.09 | 0.33 | 0.27 | 
C[C@H]1c2cccc(O)c2C(=O)C2=C(O)[C@]3(O)C(=O)C(C(N)=O)=C(O)[C@@H](N(C)C)[C@@H]3[C@@H](O)[C@@H]21.O [DOXYCYCLINE] | 60 | 60 | 40 |  | 35 | 0.66 | 53 | 30
O=c1[nH]cc(F)c(=O)[nH]1 [FLUOROURACIL] | 100 |  | 40 |  | 8 | 0.09 | 85 | 
CCn1cc(C(=O)O)c(=O)c2cnc(N3CCCC3)nc21 [PIROMIDIC ACID] | 120 | 250 | 100 |  | 184 | 1.67 | 110 | 97
CN(C)[C@@H]1C(O)=C(C(N)=O)C(=O)[C@@]2(O)C(O)=C3C(=O)c4c(O)cccc4[C@@](C)(O)[C@H]3C[C@@H]12 [TETRACYCLINE] |  |  |  |  | 207 | 1.62 | 128 | 51
Cc1c(C(=O)O)c(O)cc2c1C(=O)c1c(O)c([C@@H]3O[C@H](CO)[C@@H](O)[C@H](O)[C@H]3O)c(O)c(O)c1C2=O [CARMINIC ACID] | 2500 | 2200 | >5000 |  | 1650 | 0.93 | 1770 | 3730
